We go through 52 compounds from PubChem BioAssay (NCI).

Where “and” joins values, the source holds several entries; their conditions need not be identical. Equal values may be shown once.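 Where inhibition never reached the appropriate level, the endpoint shown equals the highest concentration tested. Otherwise, values were interpolated linearly from a five-concentration, 48-hour dose response in 96-well plates. The concentration for 50% growth inhibition is given as GI50. TGI is the concentration that stops growth completely.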 Residues, ends and D or L forms follow the SMILES beside them. *: point of attachment. Cbz = O=C(OCc1ccccc1)* Bounds are passed on as bounds.

This experiment concerns MDA-MB-468 breast. In words: growth of human tumour cells (NCI), 48 h.
Turning to `CC/C=C\C[C@H](O)C/C=C1/C(=O)C=C[C@@H]1C/C=C\CCCCO`, the GI50 was 1970 nM and the TGI was 4650 nM.

As for `C[C@H]1CCC/C=C/[C@@H]2C[C@H](O)C[C@H]2[C@H](O)/C=C/C(=O)O1`, the GI50 was 31.2 nM and the TGI was found to be 268 nM.

In the case of `COC(=O)CNc1nc(N(C)O)nc(N(C)O)n1`, the GI50 was 2160 nM and the TGI turned out to be 17400 nM.

As to `COc1cc(C2CC(=O)Nc3c2c(C)nn3-c2nc3ccccc3[nH]2)cc(OC)c1O` (centres undefined), the GI50 is 2370 nM and the TGI turned out to be 7090 nM.

Regarding `CN(C)CCS(=O)(=O)Nc1cc(-c2ccc3ncc(C#N)c(Nc4ccc(F)c(Cl)c4)c3c2)cnc1Cl`, the GI50 was 58.3 nM and the TGI came out at 233 nM.

On to `Cc1cccc(Cl)c1NC(=O)c1cnc(Nc2cc(N3CCOCC3)cc(S(C)(=O)=O)c2)s1`, for which the GI50 is 1470 nM and the TGI is 8030 nM.

Take `O=C1NC(=NCCc2ccccn2)S/C1=C\c1ccc2ncccc2c1`: the GI50 was 5770 nM and the TGI is over 25000 nM.

For the compound `CCNCCNc1cc(-c2ccc(C(F)(F)F)cc2)c(C#N)c2nc3cc(Cl)c(Cl)cc3n12`, the GI50 was 1830 nM and the TGI was found to be 3390 nM.

`CN(C)CCOc1ccccc1NC1=C(Cl)C(=O)C(Nc2ccccc2OCCN(C)C)=C(Cl)C1=O`: the GI50 is 579 nM and the TGI was 1170 nM.

Take `COc1ccc2c(c1)C(c1cc(OC)c3c(c1)OCO3)C1=C(COC1=O)N2` (centres undefined): the GI50 was 205 nM and the TGI is 849 nM.

For `Cn1cc(C2=C(c3cn(CCCCCO)c4ccccc34)C(=O)NC2=O)c2ccccc21`, the GI50 is 3470 nM and the TGI was found to be 14100 nM.

For the compound `Cc1[nH]nc2ncc(C(=O)N3CCC[C@H]3c3ccc(Cl)cc3)cc12`, the GI50 was 33300 nM and the TGI was over 100000 nM.

Take `NC(N)=Nc1ccc(/C=C2\C=Cc3ccccc32)cc1`: the GI50 is 148 nM and the TGI is 969 nM.

Turning to `NCCSC(c1ccccc1)(c1ccccc1)c1ccccc1`, the GI50 was 357 nM and the TGI turned out to be 1630 nM.

`CC(=O)N[C@@H](Cc1ccc(OP(=O)(O)O)cc1)C(=O)N[C@H]1CCC(=O)N2CCC[C@@H](C(=O)NCc3ccccc3)N2C1=O`: the GI50 is over 25000 nM and the TGI is over 25000 nM.

Regarding `C=CC(=O)Nc1cccc(Oc2nc(Nc3ccc(N4CCN(C)CC4)cc3OC)ncc2Cl)c1`, the GI50 is 113 nM and the TGI was determined as 518 nM.

As for `CN(C)Cc1c(C(=O)NCCOc2ccc(C(=O)NO)cc2)oc2ccccc12`, the GI50 is 152 nM and the TGI amounted to 2360 nM.

As to `O=C(O)c1cn(C2CC2)c2cc(N3CCN(Cc4c(O)ccc5ccccc45)CC3)c(F)cc2c1=O`, the GI50 is 15200 nM and the TGI is over 100000 nM.

Regarding `Cc1ccccc1C(C(=O)NC1CCCCC1)N(C(=O)CNc1ccc(C#N)cc1)c1cccc(F)c1` (centres undefined), the GI50 was 25700 nM and the TGI is over 100000 nM.

With `Cc1ccccc1C(C(=O)NC1CCCCC1)N(C(=O)CNc1ncccc1F)c1cccc(F)c1` (centres undefined), the GI50 was over 65600 nM and the TGI is over 100000 nM.

Take `CC(C)Cc1ccc(C(C)C(=O)NCc2ccc(Cn3c(=O)sn(CCCI)c3=O)cc2)cc1` (centres undefined): the GI50 is 423 nM and the TGI came to 1620 nM.

Consider `Nc1ncn([C@H]2C[C@H](OP(=O)(O)OC[C@H]3O[C@@H](n4cnc5c(=O)[nH]c(N)nc54)C[C@@H]3O)[C@@H](CO)O2)c(=O)n1`, for which the GI50 was 154 nM and the TGI is 67900 nM.

Consider `O=c1oc2ccc(Br)cc2c(=O)n1-c1ccc(Cl)cc1F`, for which the GI50 was 1380 nM and the TGI came out at 5190 nM.

As for `Cc1ccsc1-c1ccc2c(c1)COC2(CCCN(C)C)c1ccc(F)cc1` (centres undefined), the GI50 was 1580 nM and the TGI was found to be 3060 nM.

For `O=[N+]([O-])c1ccc2c(c1)C(c1ccccc1Cl)=Nc1c(n[nH]c1-c1cccnc1)N2`, the GI50 is over 25000 nM and the TGI was over 25000 nM.

Take `CN1CCN(Cc2ccc(NC(=O)c3cncc(C#Cc4cnc5ccc(OC6CCOCC6)nn45)c3)cc2C(F)(F)F)CC1`: the GI50 was 105 nM and the TGI came out at 278 nM.

`CC(C)C[C@@H](C=O)NC(=O)[C@H](CC(C)C)NC(=O)[C@H](CC(C)C)NC(=O)OCc1ccccc1` (Cbz-Leu-Leu-Leu-aldehyde): the GI50 is 249 nM and the TGI amounted to 663 nM.

Turning to `CCCN(CCC)c1ccc(C=O)c(C)c1`, the GI50 is 1980 nM and the TGI was 32500 nM.

As for `Cc1[nH]c(C(=O)Nc2ccccc2OCc2cccc(C(=O)NC3CCNC3)c2)c(Cl)c1Cl` (centres undefined), the GI50 was 1890 nM and the TGI was found to be 3600 nM.

As for `Cc1ccc(OCCOCCOCCOCCOCCOc2ccc(C)n(O)c2=S)c(=S)n1O`, the GI50 is 36.8 nM and the TGI came to 412 nM.

On to `COc1ccc(Cn2cc3c(c2-c2cc(OC)c(OC)c(OC)c2)CCc2c(CO)noc2-3)cc1`, for which the GI50 is 307 nM and the TGI worked out at 18900 nM.

Take `CC1Cc2ccccc2N1C(=O)Cc1nc(N2CCOCC2)cc(=O)[nH]1` (centres undefined): the GI50 was 2060 nM and 5780 nM; the TGI is 17100 nM and 47500 nM.

On to `COc1cc2nc3cc([N+](=O)[O-])ccc3c(NCCNCC(C)O)c2cc1OC` (centres undefined), for which the GI50 was 203 nM and the TGI was 542 nM.

On to `CCCCCCCCCCCCCCCCN(CC)CC`, for which the GI50 is 2210 nM and the TGI was 4550 nM.

Consider `NC(=O)c1cc(Br)ccc1NC(=O)/C=C/c1ccccc1`, for which the GI50 is 837 nM and the TGI is 4320 nM.

For the compound `Cc1sc2c(c1C)C(c1ccc(Cl)cc1)=N[C@@H](CC(=O)NCCCN1CCN(C)CC1)c1nnc(C)n1-2`, the GI50 is 197 nM and the TGI is over 100000 nM.

For the compound `O=C1CC(N2C(=O)/C(=C/C(Cl)=C\c3ccc([N+](=O)[O-])cc3)SC2=S)C(=O)N1c1ccc(O)cc1` (centres undefined), the GI50 was 1870 nM and the TGI is 5700 nM.

In the case of `O=S(=O)(NCCCNc1cc(-c2cn(-c3ccccc3)nc2-c2cccc(O)c2)ccn1)c1ccc(Br)cc1`, the GI50 was 1540 nM and the TGI amounted to 5610 nM.

For the compound `CN(C)C=Nc1c(I)cc(I)c(CCC(=O)O)c1I`, the GI50 was over 100000 nM and the TGI is over 100000 nM.

Turning to `COc1ccc(-c2[nH]nc(N)c2-c2cc(OC)c(OC)c(OC)c2)cc1`, the GI50 was 36.8 nM and the TGI worked out at 6230 nM.

In the case of `Cn1c(=O)c(Oc2ccc(F)cc2F)cc2cnc(NC3CCOCC3)nc21`, the GI50 was over 25000 nM and the TGI was over 25000 nM.

In the case of `O=C1c2c(Cl)c(Cl)c(Cl)c(Cl)c2C(=O)C2(Cl)CC=CCC12Cl` (centres undefined), the GI50 was 1210 nM and the TGI is 2880 nM.

On to `C=CCOC(=O)Nc1cccn([C@H](CC(C)C)C(=O)NCCC(C)C)c1=O`, for which the GI50 was 42400 nM and the TGI was over 100000 nM.

Regarding `N#CC1=C(N)Oc2c(sc3c(Br)cccc23)C1c1ccc(Cl)cc1` (centres undefined), the GI50 is 521 nM and the TGI was found to be 3200 nM.

For the compound `CNC(=O)c1cccc(C#Cc2cncnc2Nc2ccc(OCc3cccc(F)c3)c(Cl)c2)c1`, the GI50 is 616 nM and the TGI came to 4050 nM.

Turning to `C=C1CC2C3C=C(C)C4=CC(=O)CC[C@]4(C)C3CC[C@]2(C)[C@@]1(OC(C)=O)C(C)=O` (some centres undefined), the GI50 was 3230 nM and the TGI was over 100000 nM.

For the compound `C=CC(=O)N1CC[C@H](n2nc(C#Cc3cc(OC)cc(OC)c3)c3c(N)ncnc32)C1`, the GI50 is 3330 nM and the TGI amounted to 78500 nM.

`NC(=O)n1c(=O)n(-c2cccc(C(F)(F)F)c2)c(=O)c2cc(-c3ccc(F)cc3F)ccc21`: the GI50 is 1840 nM and the TGI turned out to be 5830 nM.

Take `C=C1C(=O)O[C@H]2[C@H]1CC/C(CNC(=O)/C=C/c1ccccc1F)=C\CC[C@@]1(C)O[C@@H]21`: the GI50 was 493 nM and the TGI is 1960 nM.

Take `COC(=O)[C@@H](C)C[C@H](Cc1ccccc1)NC(=O)c1csc([C@@H](C[C@H](C(C)C)N(C)C(=O)[C@@H](NC(=O)[C@H]2CCCN2C)C2CC2)OC(C)=O)n1`: the GI50 was 0.328 nM and 2.5 nM; the TGI is over 25000 nM.

`COc1cc(/C=C/C(=O)c2c(-c3ccc(F)cc3)nc3sc(C)nn23)cc(OC)c1OC`: the GI50 is 1920 nM and the TGI was 7740 nM.

Regarding `Oc1ccccc1/C=N\NC(=S)N/N=C/c1ccccc1O`, the GI50 is 2240 nM and the TGI turned out to be 30500 nM.
